# From patent publication US11733142B2, “Antimicrobic susceptibility testing using digital microscopy” (Beckman Coulter, Inc., priority 2017, dated 2023)
# Legend:
# E. coli = test: Antimicrobic susceptibility testing (AST) by digital microscopy: count sum, area sum, area/count ratio; format: cell-based
# Protocol: FIGS. 7-23 illustrate various features and steps of optimized AST method 101 (FIG. 19). In some versions, system 1 as discussed above may be used to facilitate some or all of the features provided in optimized AST method 101. Optimized AST method 101 includes performing an image analysis cycle 102 repetitively until a MIC is determined. FIG. 8 provides several exemplary digital microscopy parameters for use in optimized AST method 101. Test well 20 is embodied by a “384” style test well, having a clear viewing bottom. The volume of inoculum in test well 20 may be set to 20 microliters to reduce the amount of materials such as bulk diluents required by AST method 101 and/or minimize light artifacts and provide sampling of a consistent number of microbes from the 1:250 dilution of the 0.5 MacFarland inoculum. […] the volume of inoculum in test well 20 generally increases the light artifacts. In some instances, capturing a single vertical plane 103 at 20× objective whereby AST camera 35 is set at 0.33 microns/pixel may be sufficient for sampling the inoculum and ensuring that each individual microbe is recognizable. However, these parameters are configurable and may change as desired by the user or the underlying needs of the system. Capturing three focal sites spaced about 5 microns apart within single vertical plane 103 may also provide a sufficient number of microbes in the sample to count for use in optimized AST method 101. These three focal sites are labeled site 105, site 107, and site 109 in FIG. 8. In an exemplary version of optimized AST method 101, each focal site is approximately 700×700 microns within single vertical plane 103, rather than capturing three sites in three different vertical planes. AST camera 35, optics system 9, and computer 49 are configured to capture an image of each focal site in consecutive time periods, manipulate each of these images, and thereafter use the data derived from these manipulated images to make a MIC determination. Image analysis cycle 102 is generally depicted in FIG. 9 and comprises an image capture step 111, an image enhancement step 113, an image segmentation step 115, and an object counting step 117. Optimized AST method 101 includes performing image analysis cycle 102 repetitively until a MIC is determined. Image analysis cycle 102 utilizes one or more instances of computer 49 and the various elements thereof to perform image capture step 111, image enhancement step 113, image segmentation step 115, and object counting step 117, as well as any sub steps provided therein. Once image segmentation step 115 generates segmented image 143, image segmentation step 115 proceeds to object counting step 117. In object counting step 117, the background and foreground pixels are considered to derive information regarding the number of microbes in the sample, the area occupied by the microbes in the sample, and the ratio between the number of microbes and the area occupied by the microbes. In some versions of object counting step 117, the actual microbe count is compared with an average microbe count to determine if an error occurred within the image capture process. The comparison may incorporate a standard deviation with the average microbe count to generalize the microbe comparison. Object counting step 117 may be configured to derive information regarding the ratio between the total area occupied by all of the microbes in the image and the total count of microbes. This information may be useful by determining whether the microbes are undergoing elongation over time. Elongation is a precursor to death and indicates the concentration of the antimicrobic dilution is negatively affecting the microbes. More specifically, elongation may occur when microbes such as bacteria encounter an effective amount of antibiotic drugs. Once object counting step 117 derives the desired information from segmented image 143, image analysis cycle 102 terminates. […]
# [1] = system: gram negative bacteria carrying the Klebsiella pneumonia carbapenemase (KPC) resistance mechanism; test: Growth pattern combined with fluorogenic pH test (MEU) to detect resistance and predict MIC; format: cell-based; details: predicted if pH changes in Meropenem well within 1-2 hours and the growth pattern is identified
# Description: The growth pattern information derived from optics system 9 may also be combined with a fluorogenic test measuring a change in pH to detect some mechanisms of resistance in the microbes being tested. As an example, one of the fluorogenic test substrates could be an antimicrobial agent. Degradation of the antimicrobial agent leads to a change in the pH of the medium within two hours after inoculation, and the pH change can be detected with an indicator that changes fluoresces with changes in pH. Combining the information on the growth patterns (cell count, area, and area/count), as described above, along with an indication that the antimicrobial agent has degraded provides a way to quickly ascertain if the microbe is resistant and helps to determine the MIC of the organism.
# For example, the antibiotic Meropenem is enzymatically degraded by microbes such as gram negative bacteria carrying the Klebsiella pneumonia carbapenemase (KPC) resistance mechanism. If Meropenem is degraded, the medium drops in pH. The fluorogenic pH indicator, MEU (methyllumbeliferone) will change (decrease) in fluorescence with that change. This change occurs within 1 to 2 hours. […]
compound,measurement,setting,value
CO/N=C(\C(=O)N[C@@H]1C(=O)N2C(C(=O)O)=C(CSc3nc(=O)c(=O)[nH]n3C)CS[C@H]12)c1csc(N)n1 [Cax],effect on bacteria count,"E. coli; E. coli sample, Cax 0.12 dilution compared with Growth sample (FIG. 20A)",no effect
same,MIC,"E. coli; E. coli sample, from count sum data (FIG. 20A)",0.25 µg/mL
same,area/count ratio (elongation spike),"E. coli; E. coli, Cax 0.25 and higher dilutions (FIG. 20C), No Growth line approximately 4.0",above 8.0
same,minimum amount of antibiotic to have the desired effect on the area occupied by the bacteria,"E. coli; E. coli, from area sum data (FIG. 20B)",0.25
same,MIC,"E. coli; E. coli, from area/count ratio data, elongation spike (FIG. 20C)",0.25 µg/mL
CO/N=C(\C(=O)N[C@@H]1C(=O)N2C(C(=O)[O-])=C(C[N+]3(C)CCCC3)CS[C@H]12)c1csc(N)n1 [Cefepime],MIC,"E. coli; E. coli sample, bacteria count data at around the 200-minute mark (FIG. 21)",0.06 µg/mL
same,MIC,"E. coli; E. coli sample, ratio data at around the 120-minute mark (FIG. 22)",0.06 µg/mL
C[C@@H](O)[C@H]1C(=O)N2C(C(=O)O)=C(S[C@@H]3CN[C@H](C(=O)N(C)C)C3)[C@H](C)[C@H]12 [Meropenem],MIC,[1],greater than 1 mcg/ml
CC1(C)S[C@@H]2[C@H](NC(=O)[C@H](N)c3ccccc3)C(=O)N2[C@H]1C(=O)O [ampicillin],growth morphology after exposure,E. coli; E. coli exposed to a dilution of ampicillin (FIG. 17) vs free from ampicillin (FIG. 18),abnormal growth in the form of elongation
